Measurements: patent US20260226076A1, “FUSED MULTICYCLIC COMPOUNDS AND THEIR USE AS PARP1 INHIBITORS” (LAEKNA THERAPEUTICS SHANGHAI CO., LTD., priority 2022, published 2026)
Where two headings read alike, the source gives them in different places.

Columns and labels:
MDA-MB-436 cells = test: Cell proliferation assay (MDA-MB-436); type: cell-based; conditions: at least 7 days, Cell-Titer Glo, read-out: MDA-MB-436 anti-proliferation assay
Procedure: (§1) For PARPi sensitivity, exponentially growing MDA-MB-436 and DLD1 BRCA2^−/− cells were seed in 96 or 384-well plates at very low density with the goal of not splitting for at least 7 days (typically 0.3k-1.2k cells/well). Cells were plated on […] and treated with DMSO or increasing concentrations of PARP1 inhibitors on Day 0. At the end of the experiment, cell viability was estimated using Cell-Titer Glo (Promega).

PARP1 = PARP1 (Homo sapiens, UniProt P09874); test: PARP1-DNA enzymatic trapping assay; type: biochemical; conditions: 10 nM PARP1, 5 nM DNA probe, 2 mM NAD+, fluorescence polarization read at 30 minutes
Chain of PARP1 (P09874 whole entry): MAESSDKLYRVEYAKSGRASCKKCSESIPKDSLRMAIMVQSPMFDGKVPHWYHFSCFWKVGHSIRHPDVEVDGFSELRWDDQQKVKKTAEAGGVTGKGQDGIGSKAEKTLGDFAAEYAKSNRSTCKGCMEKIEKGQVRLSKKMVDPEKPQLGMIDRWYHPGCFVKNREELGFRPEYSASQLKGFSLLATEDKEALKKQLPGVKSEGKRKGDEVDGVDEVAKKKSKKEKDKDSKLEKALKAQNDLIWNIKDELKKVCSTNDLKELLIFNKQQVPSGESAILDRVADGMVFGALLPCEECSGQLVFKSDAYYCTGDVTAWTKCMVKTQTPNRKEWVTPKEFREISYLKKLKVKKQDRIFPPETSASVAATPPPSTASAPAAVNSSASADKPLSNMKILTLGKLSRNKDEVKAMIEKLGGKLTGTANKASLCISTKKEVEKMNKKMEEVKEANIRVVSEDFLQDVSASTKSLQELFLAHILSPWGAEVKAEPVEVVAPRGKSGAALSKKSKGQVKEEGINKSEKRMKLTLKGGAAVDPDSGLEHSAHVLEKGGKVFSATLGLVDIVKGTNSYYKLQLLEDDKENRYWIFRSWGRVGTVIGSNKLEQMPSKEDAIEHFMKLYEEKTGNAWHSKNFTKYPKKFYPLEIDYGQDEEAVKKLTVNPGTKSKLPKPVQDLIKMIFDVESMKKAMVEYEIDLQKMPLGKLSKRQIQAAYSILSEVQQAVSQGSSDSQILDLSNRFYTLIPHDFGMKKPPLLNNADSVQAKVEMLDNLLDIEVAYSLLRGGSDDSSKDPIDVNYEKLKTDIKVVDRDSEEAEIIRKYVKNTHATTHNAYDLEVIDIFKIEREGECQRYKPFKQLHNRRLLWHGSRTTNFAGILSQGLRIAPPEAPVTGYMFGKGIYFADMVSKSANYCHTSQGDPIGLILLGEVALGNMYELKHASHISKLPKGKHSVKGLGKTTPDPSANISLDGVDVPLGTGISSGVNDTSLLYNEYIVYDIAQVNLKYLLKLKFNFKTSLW
Procedure: Enzymatic trapping assay is to measure the dissociation process of PARP1 from fluorescein-labeled DNA during the enzymatic activity. Assay was conducted at a total 10 μL of reaction volume, including 10 nM PARP1 and 5 nM DNA probe in the binding buffer (50 mM Tris-HCl pH 8.0, 50 mM NaCl, 1 mM MgCl2, 0.1 mM EDTA, and 0.01% IGEPAL), and was commenced by adding a final concentration of 2 mM NAD+ substrate.
PARP1 Poly-ADP ribosylation (PARylation) inhibitory assay was conducted with compounds dissolved in DMSO at a starting concentration of 5 μM. Dissolved compounds were added to 384-well microplate and premixed with PARPI enzyme and DNA probe for 20 minutes incubation. Enzymatic reactions were started by adding NAD+ to mixture, and each well was read at 30 minutes by microplate reader (VICTOR Nivo®, PerkinElmer) to detect the fluorescence polarization signal at 480 nm excitation/530 nm dual emission.
All measured IC50 values were calculated using four parameters dose-response inhibition model in GraphPad Prism 8.0.2 (La Jolla, California, USA, www.graphpad.com).

DLD1 BRCA2−/− cells = test: Cell proliferation assay (DLD1 BRCA2−/−); type: cell-based; conditions: at least 7 days, Cell-Titer Glo, read-out: DLD1 BRCA2−/− anti-proliferation assay
Procedure: as §1

[1] = Homo sapiens, MDA-MB-436, 168 h

Row | SMILES | IC50 (MDA-MB-436 cells) | IC50 (PARP1) | IC50 (DLD1 BRCA2−/− cells) | IC50 (MDA-MB-436 cells; [1]) | IC50 (DLD1 BRCA2−/− cells; Homo sapiens, DLD-1, 168 h)
1 | CCC1Oc2ncc(CN3C[C@H]4CN(c5ccc(C(=O)NC)nc5)C[C@@H]4C3)cc2NC1=O (mixture of isomers) [Compound 5] | 39.9 nM | 111 nM | 18.6 nM |  | 
2 | CCC1Oc2ncc(CN3C[C@H]4CN(c5ccc(C(=O)NC)nc5F)C[C@@H]4C3)cc2NC1=O (mixture of isomers) [Compound 8] |  | 47.3 nM |  | 5.13 nM | 13.9 nM
3 | CCC1Oc2ncc(CN3C[C@H]4CN(c5ccc(C(=O)NC)nc5)C[C@@H]4C3)cc2NC1=O (mixture of isomers) [Compound 14] | 9.85 nM | 33.1 nM | 5.59 nM |  | 
4 | CCC1Oc2ncc(CN3C[C@H]4CN(c5ccc(C(=O)NC6CC6)nc5)C[C@@H]4C3)cc2NC1=O (mixture of isomers) [Compound 16] |  | > 500 nM |  | > 500 nM | > 500 nM
5 | CNC(=O)c1ccc(N2C[C@@H]3CN(Cc4ccc5c(c4F)NC(=O)C(C)O5)C[C@H]3C2)cn1 (mixture of isomers) [Compound 17] |  | > 500 nM |  | > 500 nM | 468 nM
6 | CCC1Oc2ncc(CN3C[C@H]4CN(c5ccc(C(=O)NC6CC6)nc5F)C[C@@H]4C3)cc2NC1=O (mixture of isomers) [Compound 18] |  | 27.3 nM |  | 11.4 nM | 12.7 nM
7 | CCc1cc2ncc(CN3C[C@H]4CN(c5ccc(C(=O)NC)nc5)C[C@@H]4C3)cc2[nH]c1=O (racemic) [Compound 2] | 0.4 nM | 10.7 nM | 1.98 nM |  | 
8 | CNC(=O)c1ccc(N2C[C@@H]3CN(Cc4ccc5nc(C)c(=O)[nH]c5c4F)C[C@H]3C2)c(F)n1 (racemic) [Compound 3] |  | 41.1 nM |  | 15.7 nM | 45.3 nM
9 | CNC(=O)c1ccc(N2C[C@@H]3CN(Cc4ccc5nc(C)c(=O)[nH]c5c4F)C[C@H]3C2)cn1 (racemic) [Compound 6] |  | 262 nM |  | 76.1 nM | 49.3 nM
10 | CNC(=O)c1ccc(N2C[C@@H]3CN(Cc4cnc5c(c4)NC(=O)[C@@H]4CCCN54)C[C@H]3C2)cn1 (racemic) [Compound 7] |  | 24.8 nM |  | 2.59 nM | 4.63 nM
11 | CNC(=O)c1ccc(N2C[C@@H]3CN(Cc4cnc5c(c4)[nH]c(=O)n4cccc54)C[C@H]3C2)cn1 (racemic) [Compound 12] |  | 17.3 nM |  | 5.03 nM | 3.68 nM
12 | CNC(=O)c1ccc(N2C[C@@H]3CN(Cc4ccc5c(c4)[nH]c(=O)n4ccnc54)C[C@H]3C2)cn1 (racemic) [Compound 13] |  | 46.3 nM |  | 31.6 nM | 10.6 nM
13 | CCc1cc2ncc(CN3C[C@H]4CN(c5ccc(C(=O)NC)nc5F)C[C@@H]4C3)cc2[nH]c1=O (racemic) [Compound 19] | 0.59 nM | 6.13 nM | 0.59 nM |  | 
14 | Cc1cc2ncc(CN3C[C@H]4CN(c5ccc(C(=O)NC6CC6)nc5)C[C@@H]4C3)cc2[nH]c1=O (racemic) [Compound 20] |  | 16.6 nM |  | 3.47 nM | 4.12 nM
15 | CNC(=O)c1ccc(N2C[C@@H]3CN(Cc4cnc5cc(C)c(=O)[nH]c5c4)C[C@H]3C2)c(F)n1 (racemic) [Compound 21] |  | 17.8 nM |  | 1.91 nM | 1.76 nM
16 | CCc1cc2ncc(CN3C[C@H]4CN(c5ccc(C(=O)NCCOC)nc5)C[C@@H]4C3)cc2[nH]c1=O (racemic) [Compound 26] |  | 5.99 nM |  | 0.69 nM | 1.6 nM
17 | CCc1cc2ncc(CN3C[C@@H]4CN(c5ccc(C(=O)NC)nc5)C[C@@H]4C3)cc2[nH]c1=O [Compound 1] |  | 42.9 nM |  | 410 nM | > 500 nM

Row | SMILES | IC50 (MDA-MB-436 cells) | IC50 (PARP1) | IC50 (DLD1 BRCA2−/− cells) | IC50 (MDA-MB-436 cells; [1]) | IC50 (DLD1 BRCA2−/− cells; Homo sapiens, DLD-1, 168 h)
18 | CCc1cc2ncc(CN3C[C@H]4CN(c5ccc(C(=O)NC)nc5)C[C@@H]4C3)cc2[nH]c1=O [Compound 9] | 1.76 nM | 10.8 nM |  |  | 1.29 nM
19 | CNC(=O)c1ccc(N2C[C@H]3CN(Cc4ccc5nc(C)c(=O)[nH]c5c4F)C[C@@H]3C2)c(F)n1 [Compound 10] |  | 20.6 nM |  | 7.84 nM | 4.92 nM
20 | CNC(=O)c1ccc(N2C[C@@H]3CN(Cc4ccc5nc(C)c(=O)[nH]c5c4F)C[C@H]3C2)c(F)n1 [Compound 11] |  | 323 nM |  | > 500 nM | > 500 nM
21 | CNC(=O)c1ccc(N2C[C@H]3CN(Cc4cnc5c(c4)NC(=O)[C@@H]4CCCN54)C[C@@H]3C2)c(F)n1 [Compound 22] |  | 10.9 nM |  | 0.69 nM | 1.09 nM
22 | CNC(=O)c1ccc(N2C[C@@H]3CN(Cc4cnc5c(c4)NC(=O)[C@@H]4CCCN54)C[C@H]3C2)c(F)n1 [Compound 23] |  | 31.1 nM |  | 20.2 nM | 34.9 nM
23 | CNC(=O)c1ccc(N2C[C@@H]3CN(Cc4cnc5cc(C)c(=O)[nH]c5c4)C[C@H]3C2)c(C)n1 [Compound 24] |  | > 500 nM |  | 407 nM | 371 nM
24 | CNC(=O)c1ccc(N2C[C@H]3CN(Cc4cnc5cc(C)c(=O)[nH]c5c4)C[C@@H]3C2)c(C)n1 [Compound 25] |  | 20.5 nM |  | 5.06 nM | 7.49 nM
25 | CCc1cc2ncc(CN3C[C@H]4CN(c5ccc(C(=O)NC)nc5F)C[C@@H]4C3)cc2[nH]c1=O [Compound 28] | 3.93 nM | 9.73 nM | 5.02 nM |  | 
26 | CNC(=O)c1ccc(N2C[C@H]3CN(Cc4cnc5cc(C)c(=O)[nH]c5c4)C[C@@H]3C2)c(F)n1 [Compound 29] |  | 10.9 nM |  | 0.59 nM | 0.87 nM
27 | Cc1cc2ncc(CN3C[C@@H]4CN(c5ccc(C(=O)NC6CC6)nc5F)C[C@H]4C3)cc2[nH]c1=O [Compound 30] |  | 8.09 nM |  | 0.37 nM | 0.45 nM
28 | CNC(=O)c1ccc(N2C[C@H]3CN(Cc4ccc5nc(C)c(=O)[nH]c5c4)C[C@@H]3C2)c(F)n1 [Compound 31] |  | 8.35 nM |  | 0.98 nM | 1.49 nM
29 | CNC(=O)c1ccc(N2C[C@H]3CN(Cc4cnc5cc(OC)c(=O)[nH]c5c4)C[C@@H]3C2)c(F)n1 [Compound 33] |  | 7.81 nM |  | 2.48 nM | 4.13 nM
30 | CCc1cc2ncc(CN3C[C@@H]4CN(c5ccc(C(=O)NCCOC)nc5F)C[C@H]4C3)cc2[nH]c1=O [Compound 34] |  | 10.5 nM |  | 0.78 nM | 1.09 nM
31 | COCCNC(=O)c1ccc(N2C[C@H]3CN(Cc4cnc5cc(C)c(=O)[nH]c5c4)C[C@@H]3C2)c(F)n1 [Compound 35] |  | 23.7 nM |  | 3 nM | 4.14 nM
32 | CNC(=O)c1ccc(N2C[C@H]3CN(Cc4cc5[nH]c(=O)c(C)cc5cn4)C[C@@H]3C2)c(F)n1 [Compound 36] |  | 8.44 nM |  | 2.08 nM | 1.51 nM
33 | CCc1nc2ncc(CN3C[C@@H]4CN(c5ccc(C(=O)NC)nc5F)C[C@H]4C3)cc2[nH]c1=O [Compound 37] |  | 13.5 nM |  | 4.63 nM | 5.98 nM
34 | O=C(NC1COC1)c1ccc(N2C[C@H]3CN(Cc4ccc5c6c(c(=O)[nH]c5c4)COCC6)C[C@@H]3C2)c(Cl)n1 [Compound 84] |  | 411 nM |  |  | 
